This passage reports inhibition results from patent publication US8106055B2, “Substituted amide compounds” (Gruenenthal GmbH, priority 2007, dated 2012).

Molecules are shown by their SMILES.

For experiment [1], the target named is T1, bradykinin 1 receptor (B1R) of the rat (Rattus norvegicus, UniProt P97583).
T1 construct: expressed in transfected cells; host or cells: CHO K1 cells
T1 sequence (P97583 1-337): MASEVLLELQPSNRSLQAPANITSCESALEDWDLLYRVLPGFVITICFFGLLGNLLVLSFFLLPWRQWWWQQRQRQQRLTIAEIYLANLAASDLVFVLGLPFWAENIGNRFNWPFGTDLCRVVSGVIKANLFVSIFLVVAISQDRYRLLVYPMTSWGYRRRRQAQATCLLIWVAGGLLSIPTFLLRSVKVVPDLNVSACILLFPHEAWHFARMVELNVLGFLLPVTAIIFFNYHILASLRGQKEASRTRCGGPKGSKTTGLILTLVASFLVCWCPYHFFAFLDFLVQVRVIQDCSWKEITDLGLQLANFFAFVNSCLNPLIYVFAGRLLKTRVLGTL
Nature of the experiment: Functional investigation on the rat bradykinin 1 receptor (B1R), Ca2+ FLIPR assay in CHO K1 rB1R cells. The format is cell-based. To be noted: CHO-K1, B1R antagonism rat; test substance 10 μM; Ca2+ FLIPR, CHO K1 rB1R cells; read-out: B1R Ant. r [10 μM] % Inhibition. The essentials: (§1)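 Peak Ca2+-dependent fluorescence in B1R-transfected CHO K1 cells measures antagonism of an EC80 agonist challenge given 10-20 min after compound. Agonist is Lys-Des-Arg9-bradykinin for human, Des-Arg9-bradykinin for rat receptor.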

In another experiment the target is T2, human μ opiate receptor (Homo sapiens, UniProt P35372).
T2 construct: purchased PerkinElmer Life Sciences, Zaventem, Belgium RB-HOM; host or cells: CHO-K1 cells (membrane preparation)
Nature of the experiment: Affinity for the human μ opiate receptor ([3H]-naloxone displacement, CHO-K1 receptor membrane preparation, SPA). Type of experiment: binding. As to conditions: 1.5 h, Table 3, to be read in the same way as Table 1; test concentration 1 μM; read-out: μ. In outline: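 At 1 μmol/l, compounds were scored for % displacement of 1 nmol/l [3H]-naloxone from CHO-K1-expressed human μ opiate receptor in a homogeneous SPA format (90 min, room temperature).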

Experiment [2] addresses T3, human bradykinin 1 receptor (B1R) (Homo sapiens, UniProt P46663).
T3 construct: expressed in transfected cells; host or cells: CHO K1 cells
T3 sequence (P46663 1-353): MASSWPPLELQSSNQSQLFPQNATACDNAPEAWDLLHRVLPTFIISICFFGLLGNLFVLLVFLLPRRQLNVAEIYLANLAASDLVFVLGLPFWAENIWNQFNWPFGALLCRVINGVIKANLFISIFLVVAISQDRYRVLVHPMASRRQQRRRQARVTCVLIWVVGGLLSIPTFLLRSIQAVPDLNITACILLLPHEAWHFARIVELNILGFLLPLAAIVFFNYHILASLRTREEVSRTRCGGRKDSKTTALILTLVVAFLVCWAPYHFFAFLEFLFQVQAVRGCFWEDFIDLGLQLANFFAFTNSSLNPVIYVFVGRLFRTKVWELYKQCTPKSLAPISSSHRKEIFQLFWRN
Nature of the experiment: Functional investigation on the human bradykinin 1 receptor (B1R), Ca2+ FLIPR assay in CHO K1 hB1R cells. The format is cell-based. To be noted: CHO-K1, B1R antagonism human; test substance 10 μM; Ca2+ FLIPR, CHO K1 hB1R cells; read-out: B1R Ant. h [10 μM] % Inhibition. The essentials:
as §1

T2 sequence (P35372 whole entry): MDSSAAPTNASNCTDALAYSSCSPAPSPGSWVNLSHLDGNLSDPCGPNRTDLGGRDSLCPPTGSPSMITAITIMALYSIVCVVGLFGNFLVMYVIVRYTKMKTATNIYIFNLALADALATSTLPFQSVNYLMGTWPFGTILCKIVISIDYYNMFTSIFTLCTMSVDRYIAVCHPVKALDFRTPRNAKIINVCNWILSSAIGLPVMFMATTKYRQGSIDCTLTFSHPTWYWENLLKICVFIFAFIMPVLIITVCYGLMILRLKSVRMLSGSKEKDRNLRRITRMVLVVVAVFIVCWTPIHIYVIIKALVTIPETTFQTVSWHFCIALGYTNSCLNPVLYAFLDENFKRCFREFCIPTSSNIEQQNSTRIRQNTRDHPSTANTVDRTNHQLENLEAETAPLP

Consider `CN(CCOCC(=O)NCC1CCC(C(c2ccccc2)N2CCOCC2)CC1)S(=O)(=O)c1c(Cl)cc(C(F)(F)F)cc1Cl` (stereo not drawn) [Example 727, 2-(2-(2,6-dichloro-N-methyl-4-(trifluoromethyl)phenylsulfonamido)ethoxy)-N-((4-(morpholino(phenyl)methyl)cyclohexyl)methyl)acetamide], for which the results for the inhibition at 10 µM in experiment [1] and in experiment [2] were 29% and 16%, respectively. In addition, the inhibition at 1 µM on human μ opiate receptor worked out at 10%.
The matching figures for `O=C(COCC1CCCCN1S(=O)(=O)c1c(Cl)cc(Cl)cc1Cl)NC1CCC(C(CCc2ccccc2)N2CCCCC2)CC1` (stereo not drawn) [Example 738, N-(4-(3-phenyl-1-(piperidin-1-yl)propyl)cyclohexyl)-2-((1-(2,4,6-trichlorophenylsulfonyl)piperidin-2-yl)methoxy)acetamide]: 62%, 75% and 77%.
The matching figures for `O=C(COCC1CCCN(S(=O)(=O)c2c(Cl)cc(Cl)cc2Cl)C1)NCC1CCC(C(CCc2ccccc2)N2CCOCC2)CC1` (stereo not drawn) [Example 758, N-((4-(1-morpholino-3-phenylpropyl)cyclohexyl)methyl)-2-((1-(2,4,6-trichlorophenylsulfonyl)piperidin-3-yl)methoxy)acetamide]: 107%, 41% and 25%.
The matching figures for `O=C(COCC1CCCN(S(=O)(=O)c2c(Cl)cc(Cl)cc2Cl)C1)NCC1CCC(C(c2ccccc2)N2CCCC2)CC1` (stereo not drawn) [Example 659, N-((4-(phenyl(pyrrolidin-1-yl)methyl)cyclohexyl)methyl)-2-((1-(2,4,6-trichlorophenylsulfonyl)piperidin-3-yl)methoxy)acetamide]: 100%, 50% and 79%.
For the compound `COc1cc(C)c(S(=O)(=O)N2CCCCC2COCC(=O)NC2CCC(C(c3ccccc3)N3CCCC3)CC2)c(C)c1` (stereo not drawn) [Example 652, 2-((1-(4-methoxy-2,6-dimethylphenylsulfonyl)piperidin-2-yl)methoxy)-N-(4-(phenyl(pyrrolidin-1-yl)methyl)cyclohexyl)acetamide], the inhibition at 10 µM came out at 105% in experiment [1] and 101% in experiment [2]. On human μ opiate receptor, the inhibition at 1 µM came out at 70%.
The matching figures for `COc1cc(C)c(S(=O)(=O)N2CCCC(OCC(=O)NCC3CCC(C(c4ccccc4)N4CCCC4)CC3)C2)c(C)c1` (stereo not drawn) [Example 648, 2-(1-(4-methoxy-2,6-dimethylphenylsulfonyl)piperidin-3-yloxy)-N-((4-(phenyl(pyrrolidin-1-yl)methyl)cyclohexyl)methyl)acetamide]: 98%, 95% and 95%.
For the compound `COc1cc(C)c(S(=O)(=O)N2CCCC2COCC(=O)NCC2CCC(C(c3ccccc3)N3CCCC3)CC2)c(C)c1` (stereo not drawn) [Example 649, 2-((1-(4-methoxy-2,6-dimethylphenylsulfonyl)pyrrolidin-2-yl)methoxy)-N-((4-(phenyl(pyrrolidin-1-yl)methyl)cyclohexyl)methyl)acetamide], the inhibition at 10 µM in experiment [1] was 106%; in experiment [2] it was 105%. Moreover, on human μ opiate receptor, the inhibition at 1 µM amounted to 67%.
On to `O=C(COCC1CCCN1S(=O)(=O)c1c(Cl)cc(Cl)cc1Cl)NCC1CCC(C(c2ccccc2)N2CCCC2)CC1` (stereo not drawn) [Example 651, N-((4-(phenyl(pyrrolidin-1-yl)methyl)cyclohexyl)methyl)-2-((1-(2,4,6-trichlorophenylsulfonyl)pyrrolidin-2-yl)methoxy)acetamide], for which the figures for the inhibition at 10 µM in experiment [1] and in experiment [2] were 105% and 103%, respectively. Moreover, the inhibition at 1 µM at human μ opiate receptor came out at 83%.
In the same order, the values of `O=C(COC1CCCN(S(=O)(=O)c2c(Cl)cc(Cl)cc2Cl)C1)NCC1CCC(C(c2ccccc2)N2CCCC2)CC1` (stereo not drawn) [Example 656, N-((4-(phenyl(pyrrolidin-1-yl)methyl)cyclohexyl)methyl)-2-(1-(2,4,6-trichlorophenylsulfonyl)piperidin-3-yloxy)acetamide] are 42%, 76% and 89%.
